Laboratory results published in patent US6818617B1 (Temple University- Of The Commonwealth System of Higher …, priority 1997, dated 2004).
Read-outs that look alike come from different tables or passages of the source. Where a SMILES comes first, the peptide text is derived from it. Bridges are numbered along the chain shown (N, C = ends). Where no end group is shown, it is not given here.

Key:
α4β1 (VLA-4) integrin = settings: rabbit cardiac allografts; cited from earlier work
[1] = system: lymphocyte infiltration of pancreatic Langerhans islets; experiment: Lymphocyte infiltration of Langerhans islets in Non Obese Diabetic (NOD) mice; format: in vivo, mouse; settings: for effect on lymphocyte infiltration in pancreatic islets of NOD mice (in words): i.p. three times per week, nine weeks
Experimental: Female NOD mice from […] of age were purchased from Jackson Laboratory (Bar Harbor, Me.).
After nine weeks of treatment the animals were sacrificed by exposure to CO2. The pancreas was removed, frozen, and stored at −70° C. until the histological analysis. For the histological analysis, five μm sections of frozen tissue were fixed with acetone. For detection of infiltrating lymphocytes, the sections were stained with hematoxylin/eosin, and observed by light microscopy.

α4β7 = target: T1, α4β7 (Homo sapiens, UniProt P13612+P26010); experiment: RPMI 8866 cell adhesion to MadCAM-1; format: cell-based; settings: RPMI 8866 cells, α4β7, ligand MadCAM-1
T1 construct: endogenous in cells; host or cells: JY cells (A11); RPMI 8866 cells (A12)
Experimental: (§1) Adhesion of cultured cells labeled with 5-chloromethylfluorescein diacetate (CMFDA) was performed as described earlier (Marcinkiewicz et al., Blood 90:1565-1575 (1997)). […] Wells were blocked by 1% BSA in HBSS buffer. Cells were labeled with fluorescein by incubation with 12.5 AM CMFDA in HBSS buffer containing 1% BSA at 37° C. by 15 min. Unbound label was removed by washing with the same buffer. Labeled cells (1×10^5 per sample) were added to the well in the presence or absence of inhibitors and incubated at 37° C. for 30 min. Unbound cells were removed by aspiration, the wells were washed and bound cells were lysed by adding 0.5% Triton X-100. In parallel the standard curve was prepared in the same plate from known concentrations of labelled cells. The plate was read using a Cytofluor 2350 fluorescence plate reader (Millipore, Bedford, Mass.) at 485 nm EX(excitation) filter and 530 nm (emmision) filter.
(§2) The effect of each peptide on cell adhesion was determined as described above. […] Cells that attached to the plates were lysed with detergent, and fluorescence intensity was measured. Percent inhibition was measured at each concentration and IC50 was determined.

α4β1 and α4β7 integrins = experiment: Panel of α4 integrin cell adhesion assays; format: cell-based; settings: at 10 μM
Experimental: as §1, §2

αIIbβ3 [2] = target: T2, αIIbβ3 (Homo sapiens, UniProt P05106+P08514); experiment: A5 (CHOαIIbβ3+) cell adhesion to immobilized fibrinogen; format: cell-based; settings: A5 (CHOαIIbβ3+) cells, ligand Fg
Experimental: as §1, §2

αIIbβ3, αvβ3, α5β1 = experiment: Panel of RGD-selective integrin assays (platelet aggregation and cell adhesion); format: cell-based; settings: range over the panel (Table 1); read-out: concentrations of potent inhibition of αIIbβ3-dependent platelet aggregation and αIIbβ3-, αvβ3-, α5β1-dependent cell adhesion
Experimental: as §2
(§3) Blood from a healthy donor was collected into a syringe containing sodium citrate as an anticoagulant. The anticoagulated blood was centrifuged at 400 g for 17 minutes, and platelet rich plasma (PRP) was removed by aspiration.

α5β1 = target: T3, α5β1 (Homo sapiens, UniProt P05556+P08648); experiment: K562 cell adhesion to immobilized fibronectin; format: cell-based; settings: 5 μg per sample of protein from fraction
T3 construct: host or cells: K562
T3 sequence (P08648 42-894 limits assumed): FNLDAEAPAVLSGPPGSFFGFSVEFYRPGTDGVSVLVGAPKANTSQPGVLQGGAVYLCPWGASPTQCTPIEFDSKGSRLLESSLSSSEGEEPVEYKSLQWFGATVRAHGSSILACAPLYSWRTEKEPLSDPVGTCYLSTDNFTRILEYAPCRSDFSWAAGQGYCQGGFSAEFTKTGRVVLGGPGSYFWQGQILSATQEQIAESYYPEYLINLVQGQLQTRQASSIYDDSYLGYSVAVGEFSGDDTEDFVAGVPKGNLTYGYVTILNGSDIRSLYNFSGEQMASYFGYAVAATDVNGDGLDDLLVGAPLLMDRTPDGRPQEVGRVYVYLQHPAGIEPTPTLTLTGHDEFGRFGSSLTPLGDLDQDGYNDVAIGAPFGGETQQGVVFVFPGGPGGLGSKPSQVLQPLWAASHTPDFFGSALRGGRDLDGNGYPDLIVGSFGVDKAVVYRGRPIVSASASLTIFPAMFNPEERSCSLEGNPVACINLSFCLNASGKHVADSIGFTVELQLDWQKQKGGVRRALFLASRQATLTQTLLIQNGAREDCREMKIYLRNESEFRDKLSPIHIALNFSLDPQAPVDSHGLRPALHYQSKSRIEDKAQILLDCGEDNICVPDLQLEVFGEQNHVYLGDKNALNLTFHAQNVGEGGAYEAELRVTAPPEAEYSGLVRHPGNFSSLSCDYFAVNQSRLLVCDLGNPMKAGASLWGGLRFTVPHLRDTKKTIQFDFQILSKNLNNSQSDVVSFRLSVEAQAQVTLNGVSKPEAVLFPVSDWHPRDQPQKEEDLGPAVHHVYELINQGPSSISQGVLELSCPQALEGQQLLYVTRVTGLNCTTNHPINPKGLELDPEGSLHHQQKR
T3 sequence (P08648 895-1049 partner limits assumed): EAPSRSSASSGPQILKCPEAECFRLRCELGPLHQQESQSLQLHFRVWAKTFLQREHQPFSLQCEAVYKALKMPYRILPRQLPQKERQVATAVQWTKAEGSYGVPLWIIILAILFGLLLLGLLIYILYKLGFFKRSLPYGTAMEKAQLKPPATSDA
T3 sequence (P05556 21-798): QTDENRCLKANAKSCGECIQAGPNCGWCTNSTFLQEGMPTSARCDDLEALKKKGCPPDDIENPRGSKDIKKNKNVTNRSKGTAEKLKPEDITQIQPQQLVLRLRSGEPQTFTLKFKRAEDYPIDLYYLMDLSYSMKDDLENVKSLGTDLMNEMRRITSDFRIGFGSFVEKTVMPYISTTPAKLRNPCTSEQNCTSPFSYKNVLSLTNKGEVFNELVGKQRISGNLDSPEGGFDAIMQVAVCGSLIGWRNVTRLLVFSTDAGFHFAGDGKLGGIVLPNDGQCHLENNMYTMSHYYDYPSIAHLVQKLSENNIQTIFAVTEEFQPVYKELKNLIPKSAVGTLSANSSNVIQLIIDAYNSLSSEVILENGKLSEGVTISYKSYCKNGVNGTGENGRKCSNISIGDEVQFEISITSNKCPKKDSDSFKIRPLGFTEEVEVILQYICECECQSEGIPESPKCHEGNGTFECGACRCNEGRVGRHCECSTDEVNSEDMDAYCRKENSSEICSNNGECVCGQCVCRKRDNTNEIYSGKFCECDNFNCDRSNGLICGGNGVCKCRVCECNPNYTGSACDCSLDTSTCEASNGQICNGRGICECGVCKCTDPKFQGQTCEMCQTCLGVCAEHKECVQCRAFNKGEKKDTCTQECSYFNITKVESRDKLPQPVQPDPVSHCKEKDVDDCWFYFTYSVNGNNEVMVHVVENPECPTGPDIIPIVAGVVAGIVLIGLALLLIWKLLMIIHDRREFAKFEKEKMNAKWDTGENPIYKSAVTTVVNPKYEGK
Experimental: as §1

α4β1 [3] = target: T4, α4β1 (UniProt G3HZ55+P13612); experiment: α4B2 (CHOα4+/α5−) cell adhesion to immobilized VCAM-1; format: cell-based, human; parameters: expressed in transfected cells; host or cells: B2 CHO cells (α5-deficient), gift of Dr. Y. Takada; settings: α4B2 (CHOα4+/α5−) cells, ligand VCAM-1
Experimental: as §1
Chinese hamster ovary cells transfected with human α4 integrin were provided by Dr. Y. Takada (Scripps Research Institute, La Jolla, Calif.). […] The bound cells were lysed with 0.5% Triton X-100, and fluorescence was measured.
as §2

αIIbβ3 [4] = target: T2, αIIbβ3; experiment: ADP-induced platelet aggregation in platelet rich plasma (ADP PA); format: cell-based; parameters: endogenous in cells; host or cells: platelets in platelet rich plasma; settings: Platelets, αIIbβ3, ligand Fg, 30 μM ADP
Experimental: as §3

αvβ3 = target: T5, αvβ3 (Homo sapiens, UniProt P05106+P06756); experiment: VNRC3 (CHOαvβ3+) cell adhesion to immobilized vitronectin; format: cell-based; settings: VNRC3 (CHOαvβ3+) cells, ligand Vn
T5 construct: expressed in transfected cells; host or cells: CHO (VNRC3 cells), gift of Dr. M. Ginsberg
T5 sequence (P06756 31-889 limits assumed): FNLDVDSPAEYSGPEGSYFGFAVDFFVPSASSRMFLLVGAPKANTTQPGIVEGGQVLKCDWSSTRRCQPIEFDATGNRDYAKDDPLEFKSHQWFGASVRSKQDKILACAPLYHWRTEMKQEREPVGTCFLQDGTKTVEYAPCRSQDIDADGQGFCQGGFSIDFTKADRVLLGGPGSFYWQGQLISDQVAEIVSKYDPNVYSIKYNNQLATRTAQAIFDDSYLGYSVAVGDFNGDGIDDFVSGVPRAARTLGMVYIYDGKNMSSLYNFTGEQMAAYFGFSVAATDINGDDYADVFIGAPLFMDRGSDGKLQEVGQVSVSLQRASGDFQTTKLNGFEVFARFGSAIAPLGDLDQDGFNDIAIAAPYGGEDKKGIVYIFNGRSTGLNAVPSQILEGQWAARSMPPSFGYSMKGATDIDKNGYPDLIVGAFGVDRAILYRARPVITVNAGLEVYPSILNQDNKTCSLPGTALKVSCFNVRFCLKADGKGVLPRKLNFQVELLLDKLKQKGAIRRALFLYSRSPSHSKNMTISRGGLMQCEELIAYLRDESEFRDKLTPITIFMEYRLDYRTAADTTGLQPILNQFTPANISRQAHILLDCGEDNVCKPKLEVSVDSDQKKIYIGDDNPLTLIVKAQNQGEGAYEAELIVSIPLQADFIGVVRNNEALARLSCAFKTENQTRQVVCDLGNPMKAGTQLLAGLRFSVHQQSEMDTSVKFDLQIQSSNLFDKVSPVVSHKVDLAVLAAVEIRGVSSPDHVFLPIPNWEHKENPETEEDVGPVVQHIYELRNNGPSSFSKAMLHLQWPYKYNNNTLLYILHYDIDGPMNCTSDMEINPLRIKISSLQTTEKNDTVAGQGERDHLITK
T5 sequence (P06756 891-1048 partner limits assumed): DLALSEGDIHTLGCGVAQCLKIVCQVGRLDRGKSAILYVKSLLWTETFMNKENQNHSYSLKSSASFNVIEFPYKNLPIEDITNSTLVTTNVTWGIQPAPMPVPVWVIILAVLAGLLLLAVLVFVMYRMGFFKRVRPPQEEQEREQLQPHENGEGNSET
T5 sequence (P05106 27-788): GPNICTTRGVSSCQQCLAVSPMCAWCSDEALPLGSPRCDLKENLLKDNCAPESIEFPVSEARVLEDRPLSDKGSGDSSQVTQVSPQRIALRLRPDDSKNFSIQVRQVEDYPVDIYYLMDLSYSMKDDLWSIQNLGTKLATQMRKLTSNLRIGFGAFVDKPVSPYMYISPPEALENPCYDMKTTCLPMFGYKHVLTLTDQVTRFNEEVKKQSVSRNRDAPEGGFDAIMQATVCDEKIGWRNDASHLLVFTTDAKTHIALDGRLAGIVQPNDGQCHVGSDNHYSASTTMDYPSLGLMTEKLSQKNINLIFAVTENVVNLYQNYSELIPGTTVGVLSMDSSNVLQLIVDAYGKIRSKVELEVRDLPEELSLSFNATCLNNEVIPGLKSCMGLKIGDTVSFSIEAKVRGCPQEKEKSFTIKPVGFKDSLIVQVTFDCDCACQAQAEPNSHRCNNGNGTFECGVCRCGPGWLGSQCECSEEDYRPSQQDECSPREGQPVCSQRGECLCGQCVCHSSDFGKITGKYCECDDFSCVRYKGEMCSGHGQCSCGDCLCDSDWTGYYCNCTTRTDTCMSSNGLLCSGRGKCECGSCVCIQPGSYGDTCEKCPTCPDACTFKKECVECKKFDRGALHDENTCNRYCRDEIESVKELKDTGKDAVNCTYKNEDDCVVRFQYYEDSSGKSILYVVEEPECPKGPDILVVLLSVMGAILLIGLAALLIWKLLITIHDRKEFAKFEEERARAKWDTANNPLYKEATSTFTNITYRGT
Experimental: as §1, §2

α4β1 [5] = target: T4, α4β1; experiment: A2 (CHOα4+) cell adhesion to immobilized VCAM-1; format: cell-based, human; parameters: expressed in transfected cells; host or cells: CHO (A2 cells, α4+ α5+), gift of Dr. Y. Takada; settings: A2 (CHOα4+) cells, ligand VCAM-1
Experimental: as §1, §2

α4β1 [6] = target: T6, α4β1 (Homo sapiens, UniProt P05556+P13612); experiment: Jurkat cell adhesion to immobilized VCAM-1; format: cell-based
T6 construct: host or cells: Jurkat
Experimental: as §1
The cell adhesion assay (as described in Example 1) was used to study the inhibitory effect of the eluted fractions on Jurkat cell adhesion to immobilized VCAM-1 and on K562 cell adhesion to fibronectin. Recombinant VCAM-1 (0.5 μg/well) or fibronectin (0.5 μg/well) were immobilized overnight at 4° C. on a 96-well plate (Falcon) in PBS buffer. After blocking, the CMFDA-labeled cells were added to each well in the presence of 5 μg per sample of protein from selected fractions.
Recombinant human VCAM-1 (0.5 μg/well) was immobilized in the wells of an ELISA plate overnight in PBS buffer. The plate was blocked using HBSS buffer containing 1% BSA. […] The plate was incubated for 30 minutes at 37° C. Unbound cells were removed by aspiration and the wells were washed with HBSS buffer.
as §2

α6β1 = target: T7, α6β1 (Homo sapiens, UniProt P05556+P23229); experiment: K562 (α6+) cell adhesion to laminin; format: cell-based
T7 construct: expressed in transfected cells; host or cells: K562 transfected with α6
T7 sequence (P23229 24-938 limits assumed): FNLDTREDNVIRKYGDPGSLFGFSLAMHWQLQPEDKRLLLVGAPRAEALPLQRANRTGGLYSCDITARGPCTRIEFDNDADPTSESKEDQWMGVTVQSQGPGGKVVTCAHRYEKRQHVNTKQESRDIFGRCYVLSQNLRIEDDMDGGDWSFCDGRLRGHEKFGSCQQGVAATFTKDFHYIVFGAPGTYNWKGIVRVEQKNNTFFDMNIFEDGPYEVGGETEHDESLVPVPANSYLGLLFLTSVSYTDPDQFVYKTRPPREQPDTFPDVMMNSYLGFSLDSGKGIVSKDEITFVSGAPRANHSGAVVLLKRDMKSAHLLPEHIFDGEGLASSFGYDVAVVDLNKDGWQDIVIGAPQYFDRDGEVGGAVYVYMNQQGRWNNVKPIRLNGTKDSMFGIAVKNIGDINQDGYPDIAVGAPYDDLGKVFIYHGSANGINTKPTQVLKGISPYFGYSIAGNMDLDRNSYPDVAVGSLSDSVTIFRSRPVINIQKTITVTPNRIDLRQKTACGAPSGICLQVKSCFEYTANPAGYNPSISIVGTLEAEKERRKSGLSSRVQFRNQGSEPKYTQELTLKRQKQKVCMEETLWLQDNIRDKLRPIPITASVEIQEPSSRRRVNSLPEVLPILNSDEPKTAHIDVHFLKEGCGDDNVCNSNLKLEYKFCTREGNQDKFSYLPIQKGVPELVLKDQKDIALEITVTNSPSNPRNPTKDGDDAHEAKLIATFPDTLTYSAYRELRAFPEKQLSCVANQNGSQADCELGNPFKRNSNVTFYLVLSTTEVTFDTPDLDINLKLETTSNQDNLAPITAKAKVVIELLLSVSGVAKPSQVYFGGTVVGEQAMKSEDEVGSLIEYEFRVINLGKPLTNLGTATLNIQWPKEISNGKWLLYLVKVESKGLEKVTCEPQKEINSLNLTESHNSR
T7 sequence (P23229 942-1130 partner limits assumed): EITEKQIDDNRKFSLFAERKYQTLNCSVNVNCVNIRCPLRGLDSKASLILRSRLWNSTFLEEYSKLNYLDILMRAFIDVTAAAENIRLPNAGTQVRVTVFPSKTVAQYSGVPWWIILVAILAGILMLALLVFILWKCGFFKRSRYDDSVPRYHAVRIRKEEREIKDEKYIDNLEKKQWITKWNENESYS
T7 sequence (P05556 21-798): as the sequence (P05556 21-798) above
Experimental: as §1, §2

MV3 cells = settings: immune deficient mice; cited from earlier work
αIIbβ3 [7] = target: T2, αIIbβ3; parameters: endogenous in cells; host or cells: platelets in platelet rich plasma; settings: after reduction and ethylpyridylethylation; Calvete et al.; cited from earlier work
Jurkat cells = experiment: Adhesion of Jurkat cells to immobilized EC3; format: cell-based; settings: 1 mM
Experimental: as §1
The adhesion study was performed using CMFDA-labeled Jurkat cells in the absence or presence 1 mM GRGDSP or GRGESP, or 10 μg/ml HP 2/1. Competition between EC3 and HP2/1 was also confirmed in cell suspension using FACS analysis. […] The experiment was performed using flow cytometry. […] The samples were fixed by addition of 1% paraformaldehyde before measurement of fluorescence intensity.

Compound: phenylacetic acid-Leu-Asp-Phe-d-Pro-amide [CS-1 peptide]
- effect on accelerated coronary arteriopathy (α4β1 (VLA-4) integrin): reduces accelerated coronary arteriopathy

Compound: Echistatin (ECESGPCCRNCKFLKEGTICKRARGDDMDDYCNGKTCDCPRNPHKGPAT) [reference compound]
- Number of Islets, Infiltration Score ++ ([1]; ++ = ⅓ of the islet infiltrated, of 27 (echistatin) or 29 (EC-3) islets, nine weeks i.p.): 10
- Number of Islets, Infiltration Score +++ ([1]; +++ = ½ or more of the islet infiltrated, of 27 (echistatin) or 29 (EC-3) islets, nine weeks i.p.): 10
- Number of Animals without infiltration ([1]; NOD mice, i.p. three times per week for nine weeks, echistatin 1 μg/mouse, EC-3 3 μg/mouse, 10 animals per group): 0
- effect on lymphocyte infiltration in pancreatic islets of NOD mice (in words) ([1]; echistatin 1 μg/mouse, EC-3 3 μg/mouse): inactive
- effect on lymphocyte infiltration in pancreatic islets of NOD mice (in words) ([1]; echistatin 1 μg/mouse, EC-3 3 μg/mouse, listed as echistatin): ineffective
- Number of Islets, Infiltration Score − ([1]; − = no infiltration, of 27 (echistatin) or 29 (EC-3) islets, nine weeks i.p.): 5
- IC50 (α4β7): > 10 µM
- activity in α4 integrin cell adhesion assays (α4β1 and α4β7 integrins): no detectable activity
- IC50 (αIIbβ3 [2]): 0.05 µM
- IC50 (αIIbβ3, αvβ3, α5β1): 0.02 to 0.13 µM
- inhibition of binding of K562 cells to immobilized fibronectin (α5β1): inhibited binding
- IC50 (α4β1 [3]): > 10 µM
- IC50 (αIIbβ3 [4]): 0.13 µM
- IC50 (αvβ3): 0.05 µM
- IC50 (α4β1 [5]): > 10 µM
- IC50 (α4β1 [6]; Jurkat cells, ligand VCAM-1, read-out: IC50, cell adhesion): > 10 µM
- IC50 (α6β1; K562 (α6+) cells, α6β1, ligand Lm): > 10 µM
- inhibition of adhesion to laminin of K562 cells transfected with α6 (α6β1; at concentration 10 μM): neither echistatin nor EC3 inhibited

Compound: eristostatin: short disintegrin, potent inhibitor of αIIbβ3, SEQ ID NO:8 (QEEPCATGPCCRRCKFKRAGKVCRVARGDWNDDYCTGKSCDCPRNPWNG; ends and bridges not checked; cysteine pairing not given here; listed as Eristocophis macmahonii)
- effect on human melanoma cell (MV3) metastases (MV3 cells): inhibits human melanoma cell (MV3) metastases

Compound: CSCC[C@@H]1NC(=O)[C@H](C)NC(=O)[C@H](CCCNC(=N)N)NC(=O)[C@H](CCCCN)NC(=O)[C@@H](N)CSSC[C@@H](C(=O)O)NC(=O)[C@H](Cc2ccc(O)cc2)NC(=O)[C@H](CC(=O)O)NC(=O)[C@H](CC(N)=O)NC(=O)[C@H](CC(C)C)NC(=O)CNC(=O)[C@H](CC(=O)O)NC(=O)[C@H](CC(C)C)NC1=O (H-CKRAMLDGLNDYC-OH; disulfide 1-13)
- IC50 (α4β1 [6]): 1000 µM
- activity relative to MLDG in molar ratio (α4β1 [6]; Jurkat cells / VCAM-1): five fold more active

Compound: CKRAMLA^7GLNDYC
- inhibition of Jurkat cell adhesion to immobilized VCAM-1 (in words) (α4β1 [6]): no significant activity

Compound: flavoridin: medium size disintegrin, SEQ ID NO:10
- decrease of ability to inhibit ADP-induced platelet aggregation (αIIbβ3 [7]): ~40 fold

Compound: GRGDSP
- effect on adhesion of Jurkat cells to immobilized EC3 (Jurkat cells): not effective

Compound: RGDS [reference compound]
- inhibition of Jurkat cell adhesion to immobilized VCAM-1 (α4β1 [6]; at this concentration (5 mM)): inactive
